17 molecules from PubChem BioAssay (NCI) can be followed below.

Some test systems named below: SR leukemia; SK-MEL-2 melanoma; 786-0 renal; NCI-H522 lung; U251 CNS; IGROV1 ovarian; HOP-92 NSCLC; HT29 colon; MDA-MB-231 breast; DU-145 prostate.
Common to all, as to assay: NCI-60 cell line screen, 48 h

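Each compound was tested at five concentrations against cells in 96-well plates for 48 hours. GI50 is the concentration that inhibits growth by half. TGI denotes the concentration required for complete inhibition of growth.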

Take `O=C1C2C3C=C4c5ccccc5N(c5ccccc5)C4(C2C(=O)N1c1ccc(Br)cc1)[C@H]1C(=O)N(c2ccc(Br)cc2)C(=O)[C@@H]31` (stereo partly specified): the TGI with SR leukemia, with SK-MEL-2 melanoma, in the assay on 786-0 renal, with NCI-H522 lung, in the assay on U251 CNS and with IGROV1 ovarian was more than 100 µM in each case. For the same molecule, the TGI in the assay on HOP-92 NSCLC and with HT29 colon was more than 100 µM in each case.
For `COc1ccc(N(/C=C/C(=O)C(F)(F)F)CC(=O)c2ccc(Cl)cc2)cc1`, the GI50 in the assay on SK-MEL-2 melanoma is 15.4 µM; in the assay with 786-0 renal, 20.7 µM; with NCI-H522 lung, 12.7 µM; in the assay with U251 CNS it was 13.7 µM; in the assay with IGROV1 ovarian, 6.14 µM; in the assay with HOP-92 NSCLC it was 15.9 µM. The GI50 in the assay with MDA-MB-231 breast is 10.4 µM; in the assay on DU-145 prostate, 19.8 µM; in the assay with HT29 colon it was 25 µM. The TGI came to 31.8 µM in the assay on SK-MEL-2 melanoma; 57.8 µM in the assay with 786-0 renal; 30 µM with NCI-H522 lung; 26.7 µM in the assay with U251 CNS; 21.7 µM in the assay on IGROV1 ovarian; 41.4 µM with HOP-92 NSCLC. The figures for the TGI in the assay with MDA-MB-231 breast, with DU-145 prostate and in the assay with HT29 colon were 24.4 µM, 40.4 µM and 95.6 µM, respectively.
With `S=C=NCCc1ccccc1`, the TGI in the assay with SR leukemia came to 86.9 µM; with SK-MEL-2 melanoma, 0.928 µM; with 786-0 renal, 1.05 µM; with NCI-H522 lung it was 0.58 µM; with U251 CNS, 2.22 µM; in the assay on IGROV1 ovarian, 1.37 µM. The molecule also showed a TGI in the assay on HT29 colon of 0.554 µM.
Take `COC1OC(C)C2OC(C)(C)OC2C1OC(C)=O` (stereo unspecified): the TGI in the assay with SR leukemia, with 786-0 renal, with NCI-H522 lung, with U251 CNS, with IGROV1 ovarian and with HOP-92 NSCLC was more than 100 µM in each case. In the assay on HT29 colon, this molecule showed a TGI of more than 100 µM.
In the case of `CC(=O)NNc1nc(C)c(C(=O)NNC(=O)C(=O)Nc2ccc([N+](=O)[O-])cc2C#N)s1`, the TGI with SR leukemia, with SK-MEL-2 melanoma, in the assay with 786-0 renal, in the assay with NCI-H522 lung, in the assay with U251 CNS and in the assay on IGROV1 ovarian was more than 100 µM each time. This molecule also displayed a TGI with HT29 colon of more than 100 µM.
`CC(=O)c1cc(C(=O)c2ccc3c(c2)Sc2ccccc2N3)c2c(C)cccn12`: the GI50 in the assay on SK-MEL-2 melanoma was 0.3 µM; in the assay on 786-0 renal, 0.488 µM; in the assay on NCI-H522 lung, 0.0328 µM; with U251 CNS, 0.325 µM; in the assay on IGROV1 ovarian, 0.621 µM; with HOP-92 NSCLC it was 0.767 µM. Further, the GI50 in the assay on MDA-MB-231 breast is 0.488 µM; in the assay with DU-145 prostate it was 0.38 µM; in the assay on HT29 colon, 0.272 µM. For the same molecule, the TGI in the assay on SK-MEL-2 melanoma was more than 66.2 µM; with 786-0 renal, 7.29 µM; in the assay with NCI-H522 lung it was 0.199 µM; in the assay on U251 CNS it was 24 µM; in the assay on IGROV1 ovarian, more than 100 µM; in the assay with HOP-92 NSCLC it was 22.6 µM. Moreover, the TGI was 10.6 µM with MDA-MB-231 breast, more than 34.8 µM with DU-145 prostate and 1.8 µM with HT29 colon.
Consider `Cc1ccc(NCCN(C)C)c2c(=O)c3ccccc3sc12`, for which the GI50 is 2 µM in the assay on SK-MEL-2 melanoma; 1.58 µM in the assay on 786-0 renal; 1.89 µM in the assay on NCI-H522 lung; 1.83 µM with U251 CNS; 1.5 µM in the assay on IGROV1 ovarian; 1.04 µM in the assay on HOP-92 NSCLC. The GI50 is 1.69 µM with MDA-MB-231 breast, 2.02 µM in the assay with DU-145 prostate and 1.62 µM with HT29 colon. The TGI with SK-MEL-2 melanoma amounted to 4.31 µM; in the assay on 786-0 renal, 3.54 µM; in the assay on NCI-H522 lung, 5.38 µM; in the assay on U251 CNS, 3.82 µM; in the assay with IGROV1 ovarian it was 5.05 µM; in the assay with HOP-92 NSCLC, 4.41 µM. The TGI with MDA-MB-231 breast was 3.73 µM; in the assay with DU-145 prostate it was 4.63 µM; in the assay on HT29 colon it was 3.77 µM.
As for `O=C(c1ccccc1)n1c(-c2ccccc2)cs/c1=N\S(=O)(=O)c1ccc(N2N=C3c4ccccc4CC3C2c2cccs2)cc1` (stereo unspecified), the GI50 in the assay on SK-MEL-2 melanoma is more than 100 µM; in the assay on 786-0 renal it was 21.8 µM; in the assay with NCI-H522 lung, 32.7 µM; in the assay on U251 CNS it was 32 µM; with IGROV1 ovarian, more than 100 µM; with HOP-92 NSCLC it was more than 100 µM. In addition, the GI50 in the assay with MDA-MB-231 breast is 41.3 µM; with DU-145 prostate, 47 µM; in the assay on HT29 colon it was 73.7 µM. Besides, the TGI in the assay with SK-MEL-2 melanoma was more than 100 µM; with 786-0 renal, 96.7 µM; in the assay on NCI-H522 lung it was more than 100 µM; with U251 CNS, more than 100 µM; with IGROV1 ovarian it was more than 100 µM; in the assay on HOP-92 NSCLC it was more than 100 µM. Further, the TGI in the assay with MDA-MB-231 breast, with DU-145 prostate and with HT29 colon was more than 100 µM throughout.
As to `Cc1ccc(C)c(NC(=O)CC2SC(=Nc3ccccc3Cl)NC2=O)c1` (stereo unspecified), the TGI is 55.4 µM in the assay on SR leukemia; more than 100 µM with SK-MEL-2 melanoma; more than 100 µM in the assay on 786-0 renal; 96.5 µM in the assay on NCI-H522 lung; more than 100 µM with U251 CNS; more than 100 µM with IGROV1 ovarian. In addition, the TGI in the assay with HOP-92 NSCLC and with HT29 colon was more than 100 µM each time.
In the case of `CN(C)CCNC(=O)c1cccc2ccc(-c3ccc(-c4ccccc4)cc3)nc12`, the TGI is 4.64 µM in the assay with SR leukemia; 32.7 µM in the assay with SK-MEL-2 melanoma; 3.39 µM with 786-0 renal; 4.33 µM in the assay on NCI-H522 lung; 4.65 µM in the assay on U251 CNS; more than 44.9 µM with IGROV1 ovarian. Moreover, the TGI with HOP-92 NSCLC stood at 11.8 µM; in the assay with HT29 colon it was 3.72 µM.
Take `CC1NC(=O)C2=C1C(N)=NC(=O)C2` (stereo unspecified): the TGI in the assay with SR leukemia, in the assay on SK-MEL-2 melanoma, in the assay on 786-0 renal, with NCI-H522 lung, in the assay with U251 CNS and in the assay with IGROV1 ovarian was more than 100 µM in each case. Further, the TGI with HOP-92 NSCLC is more than 100 µM.
In the case of `NC(=Nc1ccc(N)cc1)C(N)=Nc1ccc(N)cc1`, the GI50 is more than 100 µM in the assay on SK-MEL-2 melanoma; more than 100 µM with 786-0 renal; more than 100 µM with NCI-H522 lung; more than 100 µM in the assay with U251 CNS; 79.1 µM in the assay on IGROV1 ovarian; more than 100 µM in the assay on HOP-92 NSCLC. Moreover, the GI50 with MDA-MB-231 breast is 77.6 µM; with DU-145 prostate, more than 100 µM; in the assay with HT29 colon it was 63.4 µM. The TGI in the assay on SK-MEL-2 melanoma, in the assay with 786-0 renal, in the assay on NCI-H522 lung, in the assay on U251 CNS, in the assay on IGROV1 ovarian and in the assay with HOP-92 NSCLC was more than 100 µM in each case. The TGI with MDA-MB-231 breast, with DU-145 prostate and with HT29 colon was more than 100 µM each time.
In the case of `C[C@@H]1COCCN1c1cc(C2([S@@](C)(=N)=O)CC2)nc(-c2ccnc3[nH]ccc23)n1`, the GI50 with SK-MEL-2 melanoma was 5.61 µM; in the assay on 786-0 renal it was 2.7 µM; in the assay with NCI-H522 lung, 8.05 µM; in the assay on U251 CNS, 12.3 µM; in the assay with IGROV1 ovarian, 5.11 µM; in the assay with HOP-92 NSCLC it was 1.56 µM. Moreover, the GI50 was 8.18 µM with MDA-MB-231 breast, 4.71 µM in the assay on DU-145 prostate and 6.41 µM in the assay on HT29 colon. The TGI was 44.9 µM in the assay on SK-MEL-2 melanoma; 26.8 µM with 786-0 renal; more than 100 µM in the assay on NCI-H522 lung; more than 100 µM in the assay with U251 CNS; more than 71.1 µM with IGROV1 ovarian; 15.4 µM with HOP-92 NSCLC. The TGI with MDA-MB-231 breast, with DU-145 prostate and in the assay on HT29 colon was more than 100 µM each time.
For the molecule `CCN(CC)CCn1[nH]c2c3ccc(=O)cc3sc3c(NCCN)ccc1c32`, the TGI turned out to be 1.71 µM with SR leukemia; 2.69 µM with SK-MEL-2 melanoma; 8.94 µM in the assay on 786-0 renal; 5.18 µM in the assay with U251 CNS; 8.57 µM in the assay on IGROV1 ovarian; 3.96 µM with HOP-92 NSCLC. For the same molecule, the TGI in the assay on HT29 colon is 6.2 µM.
As for `CC(C)(C)OC(=O)c1cccnc1/C=N/O`, the TGI in the assay on SR leukemia, in the assay with SK-MEL-2 melanoma, with 786-0 renal, in the assay with NCI-H522 lung, in the assay with U251 CNS and in the assay with IGROV1 ovarian was more than 100 µM throughout. In addition, the TGI with HOP-92 NSCLC and in the assay with HT29 colon was more than 100 µM each time.
With `Cc1c(C(N)=O)sc2c1c(=O)n(Cc1ccccc1)c1nnc(-c3ccc(Br)cc3)n21`, the GI50 in the assay with SK-MEL-2 melanoma was 5.73 µM; in the assay with 786-0 renal it was 2.09 µM; in the assay with NCI-H522 lung, 3.13 µM; in the assay on U251 CNS it was 1.56 µM; with IGROV1 ovarian, 2.15 µM; with HOP-92 NSCLC it was 5.09 µM. The GI50 was 0.829 µM with MDA-MB-231 breast, 2.32 µM in the assay on DU-145 prostate and 2.32 µM in the assay with HT29 colon. Moreover, the TGI in the assay with SK-MEL-2 melanoma amounted to 18.7 µM; with 786-0 renal, 5.73 µM; in the assay on NCI-H522 lung, 12.9 µM; in the assay on U251 CNS, 13 µM; in the assay with IGROV1 ovarian, 19.2 µM; in the assay on HOP-92 NSCLC, 21.3 µM. In addition, the values for the TGI with MDA-MB-231 breast, in the assay on DU-145 prostate and in the assay on HT29 colon were 18.6 µM, 14.9 µM and 13.4 µM, respectively.
As for `COc1cc(-n2ccnc2)cc(OC)c1OC`, the GI50 in the assay on SK-MEL-2 melanoma is 64.1 µM; with 786-0 renal it was 39.1 µM; in the assay on NCI-H522 lung it was 60.6 µM; in the assay with U251 CNS, 58.6 µM; with IGROV1 ovarian, 11.1 µM; in the assay on HOP-92 NSCLC, 72.6 µM. Moreover, the figures for the GI50 with MDA-MB-231 breast, in the assay with DU-145 prostate and in the assay on HT29 colon were 79 µM, more than 100 µM and more than 100 µM, respectively. The TGI in the assay on SK-MEL-2 melanoma is more than 100 µM; in the assay with 786-0 renal, more than 100 µM; in the assay with NCI-H522 lung, more than 100 µM; in the assay with U251 CNS it was more than 100 µM; in the assay on IGROV1 ovarian, 51.6 µM; in the assay with HOP-92 NSCLC, more than 100 µM. Further, the TGI in the assay on MDA-MB-231 breast, in the assay with DU-145 prostate and with HT29 colon was more than 100 µM throughout.
